The assay addresses T1, rhJAK3 (Homo sapiens, UniProt P52333).
T1 construct: recombinant purified GST-tagged catalytic domain for each enzyme; purchased Invitrogen PV3855
As to the kind of experiment: JAK Biochemical HTRF Assay (JAK3). To be noted: recombinant purified GST-tagged catalytic domain, HTRF format, [ATP] 1.7 μM; read-out: rhJAK3 IC50. How it is done: JAK Biochemical HTRF Assay Protocol
The ability of compounds to inhibit the activity of JAK1, JAK2, JAK3, and TYK2 was measured using a recombinant purified GST-tagged catalytic domain for each enzyme (Invitrogen JAK1 #PV4774, JAK2 #PV4210, JAK3 #PV3855, TYK2 #PV4790) in an HTRF format biochemical assay. The reactions employed a common peptide substrate, LCB-EQEDEPEGDYFEWLW-NH2. The basic assay protocol is as follows: First, […] of diluted compounds in DMSO were dispensed into the wells of a dry 384-well Black plate (Greiner #781076) using a Labcyte Echo 555 acoustic dispenser. Subsequent reagent additions employed a Thermo Multidrop Combi nL. Next, 10 μL of 2× enzyme and 2× substrate in 1× assay buffer (Invitrogen kinase buffer #PV3189, 2 mM DTT, 0.05% BSA) were added to the wells and preincubated for 30 min at room temperature to allow compound binding to equilibrate. After equilibration, 10 μl, of 2×ATP in 1× assay buffer was added to initiate the kinase reaction and the plates were incubated at room temperature for 120 min. At the end of the incubation, 20 μL of 2× stop buffer containing streptavidin-Dylight (Thermo #21845) and Eu-tagged pY20 antibody (Perkin Elmer #AD0067) was added to quench the reaction. Plates were further incubated 60 min at room temperature with shaking and then read on a Perkin Elmer Envision (λex=337 nm, λem=665 and 615 nm, TRF delay time=20 μs). HTRF signal=10,000*665 nm reading/615 nm reading. After normalization to untreated controls, the percent inhibition of the HTRF signal at each compound concentration was calculated. The plot of percent inhibition vs. the log of compound concentration was fit with a 4-parameter dose response equation to calculate IC50 values.
Background: Time-resolved FRET reads energy transfer from a long-lived donor to a nearby acceptor.

Where only a bound is given, the exact number is not on record here.

T1 sequence (P52333 822-1111 limits assumed): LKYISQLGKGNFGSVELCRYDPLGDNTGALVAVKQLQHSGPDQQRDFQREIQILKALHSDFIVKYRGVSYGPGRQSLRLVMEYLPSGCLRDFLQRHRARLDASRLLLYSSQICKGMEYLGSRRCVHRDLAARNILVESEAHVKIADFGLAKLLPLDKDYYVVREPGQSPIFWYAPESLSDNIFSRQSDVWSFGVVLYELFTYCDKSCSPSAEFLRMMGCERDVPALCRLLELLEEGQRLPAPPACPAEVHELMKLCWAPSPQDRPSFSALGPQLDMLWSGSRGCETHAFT

Broadly, the IC50 is the concentration that inhibits the measured activity by half. In the case of `CC(C)[C@@H](Nc1cncc(-c2c[nH]c3ncc(Cl)cc23)n1)C(=O)NCC(F)(F)F` [Example 1-12, N^2-[6-(5-chloro-1H-pyrrolo[2,3-b]pyridin-3-yl)pyrazin-2-yl]-N-(2,2,2-trifluoroethyl)-D-valinamide], the IC50 is not above 1 nM. Consider `CC(C)(C)OC(=O)N1CCN(c2cncc(-c3c[nH]c4ncc(Cl)cc34)n2)[C@@H](C(=O)NCC(F)(F)F)C1` [Example 1-13, tert-butyl (3R)-4-[6-(5-chloro-1H-pyrrolo[2,3-b]pyridin-3-yl)pyrazin-2-yl]-3-[(2,2,2-trifluoroethyl)carbamoyl]-piperazine-1-carboxylate], for which the IC50 is 1 to 10 nM. With `CC(C)(Nc1cncc(-c2c[nH]c3ncc(Cl)cc23)n1)C(=O)NCC(F)(F)F` [Example 1-14, N^2-[6-(5-chloro-1H-pyrrolo[2,3-b]pyridin-3-yl)pyrazin-2-yl]-2-methyl-N-(2,2,2-trifluoroethyl)alaninamide], the IC50 is not above 1 nM. Regarding `O=C(NCC(F)(F)F)C1CN(c2cncc(-c3c[nH]c4ncc(Cl)cc34)n2)C1` [Example 1-15, 1-[6-(5-chloro-1H-pyrrolo[2,3-b]pyridin-3-yl)pyrazin-2-yl]-N-(2,2,2-trifluoroethyl)azetidine-3-carboxamide], the half-maximal inhibitory concentration (IC50) was 10 to 100 nM.

Consider `COC(=O)c1ncc(N[C@@H](C)C(=O)NCC(F)(F)F)nc1-c1c[nH]c2ncc(Cl)cc12` [Example 1-16, methyl 3-(5-chloro-1H-pyrrolo[2,3-b]pyridin-3-yl)-5-({(1S)-1-methyl-2-oxo-2-[(2,2,2-trifluoroethyl)amino]ethyl}amino)-pyrazine-2-carboxylate], for which the IC50 fell in the range of 10 to 100 nM. Take `C[C@H](Nc1cncc(-c2c[nH]c3ncc(Cl)cc23)n1)C(=O)NCC(F)(F)F` [Example 2, N^2-[6-(5-Chloro-1H-pyrrolo[2,3-b]pyridin-3-yl)pyrazin-2-yl]-N-(2,2,2-trifluoroethyl)-L-alaninamide]: the IC50 was not above 1 nM. Consider `C[C@H](Nc1cncc(-c2c[nH]c3ncc(Cl)cc23)n1)C(=O)NCC#N` [Example 2-1, N^2-[6-(5-chloro-1H-pyrrolo[2,3-b]-pyridin-3-yl)pyrazin-2-yl]-N-(cyanomethyl)-L-alaninamide], for which the IC50 was in the range of 10 to 100 nM.

On to `C[C@H](Nc1cncc(-c2c[nH]c3ncc(Cl)cc23)n1)C(=O)N1CCOCC1` [Example 2-2, 6-(5-chloro-1H-pyrrolo[2,3-b]-pyridin-3-yl)-N-[(1S)-1-methyl-2-morpholin-4-yl-2-oxoethyl]pyrazin-2-amine], for which the half-maximal inhibitory concentration (IC50) lay in the range of 100 to 1000 nM. `C[C@H](Nc1cncc(-c2c[nH]c3ncc(Cl)cc23)n1)C(=O)N1CCC(F)(F)C1` [Example 2-3, 6-(5-chloro-1H-pyrrolo[2,3-b]-pyridin-3-yl)-N-[(1S)-2-(3,3-difluoropyrrolidin-1-yl)-1-methyl-2-oxoethyl]pyrazin-2-amine]: the IC50 was 10 to 100 nM.

For the compound `C[C@H](Nc1cncc(-c2c[nH]c3ncc(Cl)cc23)n1)C(=O)N1CC(F)(F)C(F)(F)C1` [Example 2-4, 6-(5-chloro-1H-pyrrolo[2,3-b]-pyridin-3-yl)-N-[(1S)-1-methyl-2-oxo-2-(3,3,4,4-tetrafluoro-pyrrolidin-1-yl)ethyl]pyrazin-2-amine], the IC50 lay within 100 to 1000 nM. Turning to `C[C@@H](Nc1cncc(-c2c[nH]c3ncc(Cl)cc23)n1)C(=O)NCc1cccnc1Cl` [Example 2-5, N-[(2-chloropyridin-3-yl)methyl]-N^2-[6-(5-chloro-1H-pyrrolo[2,3-b]-pyridin-3-yl)pyrazin-2-yl]-D-alaninamide], the IC50 is 100 to 1000 nM.

In the case of `Cc1cc(CNC(=O)[C@@H](C)Nc2cncc(-c3c[nH]c4ncc(Cl)cc34)n2)no1` [Example 2-6, N^2-[6-(5-chloro-1H-pyrrolo[2,3-b]-pyridin-3-yl)pyrazin-2-yl]-N-[(5 - methylisoxazol-3-yl)methyl]-D-alaninamide], the IC50 lay in the range of 100 to 1000 nM.

With `C[C@@H](Nc1cncc(-c2c[nH]c3ncc(Cl)cc23)n1)C(=O)NCCc1cn[nH]c1` [Example 2-7, N^2-[6-(5-chloro-1H-pyrrolo[2,3-b]-pyridin-3-yl)pyrazin-2-yl]-N-[2-(1H-pyrazol-4-yl)ethyl]-D-alaninamide], the IC50 lay in the range of 100 to 1000 nM. Consider `C[C@@H](Nc1cncc(-c2c[nH]c3ncc(Cl)cc23)n1)C(=O)NCCC1CC1` [Example 2-8, N^2-[6-(5-chloro-1H-pyrrolo[2,3-b]-pyridin-3-yl)pyrazin-2-yl]-N-(2-cyclopropylethyl)-D-alaninamide], for which the half-maximal inhibitory concentration (IC50) was 10 to 100 nM. For `CC(Cc1cccnc1)NC(=O)[C@@H](C)Nc1cncc(-c2c[nH]c3ncc(Cl)cc23)n1` (stereo partly drawn) [Example 2-9, N^2-[6-(5-chloro-1H-pyrrolo[2,3-b]-pyridin-3-yl)pyrazin-2-yl]-N-(l - methyl-2-pyridin-3-ylethyl)-D-alaninamide], the IC50 fell in the range of 100 to 1000 nM.

As to `C[C@@H](Nc1cncc(-c2c[nH]c3ncc(Cl)cc23)n1)C(=O)NCc1cccs1` [Example 2-10, N^2-[6-(5-chloro-1H-pyrrolo[2,3-b]-pyridin-3-yl)pyrazin-2-yl]-N-(thiophen-2-ylmethyl)-D-alaninamide], the IC50 lay within 100 to 1000 nM. Under `C[C@@H](Nc1cncc(-c2c[nH]c3ncc(Cl)cc23)n1)C(=O)NCC(=O)N(C)C` [Example 2-11, N-[6-(5-chloro-1H-pyrrolo[2,3-b]-pyridin-3-yl)pyrazin-2-yl]-D-alanyl-N,N-dimethylglycinamide] stands 100 to 1000 nM; under `C[C@@H](Nc1cncc(-c2c[nH]c3ncc(Cl)cc23)n1)C(=O)N1CCC(F)(F)CC1` [Example 2-12, 6-(5-chloro-1H-pyrrolo[2,3-b]-pyridin-3-yl)-N-[(1R)-2-(4,4-difluoropiperidin-1-yl)-1-methyl-2-oxoethyl]pyrazin-2-amine], 100 to 1000 nM; under `C[C@@H](Nc1cncc(-c2c[nH]c3ncc(Cl)cc23)n1)C(=O)NC1CCCCNC1=O` (stereo partly drawn) [Example 2-13, N^2-[6-(5-chloro-1H-pyrrolo[2,3-b]-pyridin-3-yl)pyrazin-2-yl]-N-(2-oxoazepan-3-yl)-D-alaninamide], 100 to 1000 nM. `C[C@@H](Nc1cncc(-c2c[nH]c3ncc(Cl)cc23)n1)C(=O)NCc1ccc(N)cc1` [Example 2-14, N-(4-aminobenzyl)-N^2-[6-(5-chloro-1H-pyrrolo[2,3-b]pyridin-3-yl)pyrazin-2-yl]-D-alaninamide]: the IC50 lay in the range of 100 to 1000 nM. Take `C[C@@H](Nc1cncc(-c2c[nH]c3ncc(Cl)cc23)n1)C(=O)NCCc1cccs1` [Example 2-15, N^2-[6-(5-chloro-1H-pyrrolo[2,3-b]-pyridin-3-yl)pyrazin-2-yl]-N-(2-thiophen-2-ylethyl)-D-alaninamide]: the IC50 lay in the range of 100 to 1000 nM. Under `C[C@@H](Nc1cncc(-c2c[nH]c3ncc(Cl)cc23)n1)C(=O)NCC(=O)NC1CCCC1` [Example 2-16, N-[6-(5-chloro-1H-pyrrolo[2,3-b]-pyridin-3-yl)pyrazin-2-yl]-D-alanyl-N-cyclopentylglycinamide] stands 100 to 1000 nM; under `C[C@@H](Nc1cncc(-c2c[nH]c3ncc(Cl)cc23)n1)C(=O)NC1CCC1` [Example 2-17, N^2-[6-(5-chloro-1H-pyrrolo[2,3-b]-pyridin-3-yl)pyrazin-2-yl]-N-cyclo-butyl-D-alaninamide], 10 to 100 nM; under `C[C@@H](Nc1cncc(-c2c[nH]c3ncc(Cl)cc23)n1)C(=O)N[C@H](CO)Cc1ccc(O)cc1` [Example 2-18, N^2-[6-(5-chloro-1H-pyrrolo[2,3-b]-pyridin-3-yl)pyrazin-2-yl]-N-[(1S)-2-hydroxy-1-(4-hydroxybenzyl)-ethyl]-D-alaninamide], 100 to 1000 nM. Regarding `C[C@@H](Nc1cncc(-c2c[nH]c3ncc(Cl)cc23)n1)C(=O)N1CCN(CC(F)(F)F)CC1` [Example 2-19, 6-(5-chloro-1H-pyrrolo[2,3-b]-pyridin-3-yl)-N-{(1R)-1-methyl-2-oxo-2-[4-(2,2,2-trifluoroethyl)-piperazin-1-yl]ethyl}pyrazin-2-amine], the IC50 is 100 to 1000 nM. `C[C@@H](Nc1cncc(-c2c[nH]c3ncc(Cl)cc23)n1)C(=O)NCCCN1CCS(=O)(=O)CC1` [Example 2-20, N^2-[6-(5-chloro-1H-pyrrolo[2,3-b]-pyridin-3-yl)pyrazin-2-yl]-N-[3-(1,1-dioxidothiomorpholin-4-yl)-propyl]-D-alaninamide]: the concentration for half-maximal inhibition (IC50) was in the range of 100 to 1000 nM. Consider `C[C@@H](Nc1cncc(-c2c[nH]c3ncc(Cl)cc23)n1)C(=O)NCc1ccc(C(F)(F)F)cc1` [Example 2-21, N^2-[6-(5-chloro-1H-pyrrolo[2,3-b]-pyridin-3-yl)pyrazin-2-yl]-N-[4-(trifluoromethyl)benzyl]-D-alaninamide], for which the IC50 was 100 to 1000 nM. Consider `C[C@H](Nc1cncc(-c2c[nH]c3ncc(Cl)cc23)n1)C(=O)NCCC(F)(F)F` [Example 2-22, N^2-[6-(5-chloro-1H-pyrrolo[2,3-b]-pyridin-3-yl)pyrazin-2-yl]-N-(3,3,3-trifluoropropyl)-L-alaninamide], for which the concentration for half-maximal inhibition (IC50) was 10 to 100 nM.

The values above are taken from patent US20130040933A1, “AZAINDOLES AS JANUS KINASE INHIBITORS” (priority 2010, published 2013).
